Experimental data published in PMC5509550, “Development of a Novel Lead that Targets M. tuberculosis Polyketide Synthase 13” (Cell, 2017).
In brackets after ≈: the same amount, converted by molar mass.

What was measured:
Mtb mc^27000 = format: cell-based, Mycobacterium tuberculosis
[1] = tested on: TAM16-resistant Mtb mutants (Pks13 D1644G or D1644Y); format: cell-based, Mycobacterium tuberculosis

Structure (SMILES) | frequency of resistance observed for INH (Mtb mc^27000) | MIC against TAM16-resistant mutants [1]
NNC(=O)c1ccncc1 [INH, Isoniazid] | 1 × 10^−6 | 0.2 µM (≈ 0.0274 µg/mL)
CO[C@H]1/C=C/O[C@@]2(C)Oc3c(C)c(O)c4c(O)c(c(/C=N/N5CCN(C)CC5)c(O)c4c3C2=O)NC(=O)/C(C)=C\C=C\[C@H](C)[C@H](O)[C@@H](C)[C@@H](O)[C@@H](C)[C@H](OC(C)=O)[C@@H]1C [RIF, Rifampicin] |  | 0.04 µM (≈ 0.0329 µg/mL)
